The nature of data set [1]: Zebrafish embryo acute toxicity test (ZFET). Particulars: AB, in vivo, other: embryos exposed in 6-well plates; for LC50 at 120 h: embryos exposed from 5 hpf to 120 hpf; for LC50 at 24 h: embryos exposed from 5 hpf, 24 h after administration (to 24 hpf). More on the design: species or system zebrafish (Danio rerio). Here is the method: Zebrafish AB strain (Zebrafish International Resource Center, Eugene, OR, USA) was maintained in our facility according to standard operational guidelines. All animal procedures were performed by the Ethics Committee of Mie University, according to the Japanese Animal Welfare Regulation ‘Act on Welfare and Management of Animals’ (Ministry of Environment of Japan), and complied with international guidelines.
ZFETs were performed as previously reported. In brief, blastula stage embryos (approximately 5 h post fertilisation (hpf)) were transferred into 6-well plates and exposed to jegosaponin A or B at 28 °C until 120 hpf. Each group contained nine fish in three triplicates. The number of surviving embryos was counted every 24 h.

Data set [2] has as its system PC-3 cells. Briefly: DRAQ7 membrane permeability assay in PC-3 cells. The format is cell-based. As to conditions: Homo sapiens; for IC50: 1 h (Table 1); for EC50: DRAQ7 membrane-impermeable dye, read-out: EC50 of DRAQ7 nucleus staining (DRAQ7 positive cells). The protocol: (§1) PC-3 cells were seeded (4 × 10^3 cells/well) in ibidi 8-well μ-Slide (Ibidi, Munich, Germany) in DMEM supplemented with 10% FBS and cultured for 24 h. Then, DRAQ7 (DRAQ7 DROP & GO; Biostatus, Shepshed, UK) and the tested compounds were added to the cells. After an appropriate time, the cells were imaged using a BZ-X710 fluorescence microscope (Keyence, Tokyo, Japan). For zebrafish embryos, 48 hpf embryos were treated with DRAQ7 and the tested compounds and imaged using a BZ-X710 fluorescent microscope.

The test system of data set [3] is 48 hpf zebrafish. Briefly: DRAQ7 membrane permeability assay in zebrafish. The format is in vivo, zebrafish (Danio rerio). Particulars: for Lethality to zebrafish embryos at high concentration: 60 min; for DRAQ7 signals in zebrafish (cell membrane permeability): 30 min of exposure, mainly tail regions. The protocol:
as §1

Data set [4] concerns LNCaP. Put plainly: Cell viability assay (CellTiter-Glo) in LNCaP cells. The format is cell-based, human. Particulars: 1 µM, 48 h (Figure S1). The protocol: (§2) Human prostate cancer PC-3, […], and LNCaP cells were obtained from Riken Bioresource Center (Tokyo, Japan) and cultured in Dulbecco’s modified Eagle medium-low glucose (DMEM; Sigma-Aldrich, St. Louis, MO, USA), supplemented with 10% fetal bovine serum (FBS; Biowest SAS, Nuaille, France) and 1% penicillin-streptomycin (Fujifilm Wako Pure Chemicals) at 37 °C in a humidified 5% CO2 atmosphere. For screening, the cells were seeded (3 × 10^3 cells/well) in a 96-well plate and cultured for 24 h in DMEM supplemented with 1% FBS. The tested compounds were then administered to the cells. Forty-eight hours after administration, cell viability was measured using the CellTiter-Glo luminescent cell viability assay (Promega, Madison WI, USA) according to the manufacturer’s protocol. Luminescence signals were measured using a Victor2 microplate reader (PerkinElmer, Boston, MA, USA). For the negative control (0 μM jegosaponin A and B), 0.1% dimethyl sulfoxide (vehicle) was used. Cell viability was calculated as the ratio of the negative controls. The assay was performed in triplicate.
(In general: Cellular ATP, detected with luciferase, serves as a proxy for viable cell number.)

Data set [5] has as its system DU145. Briefly: Cell viability assay (CellTiter-Glo) in DU145 cells. Particulars: 1 µM, 48 h (Figure S1). The format is cell-based, human. Here is the method: as §2
The test system of data set [6] is PC-3 prostate cancer cells. Briefly: Cell viability assay (CellTiter-Glo) in PC-3 cells. Particulars: for Suppression of viability of PC-3 cells: 1 µM, 48 h (Figure S1); for CC50: Homo sapiens, PC-3 cells, 48 h treatment, read-out: PC-3 cell viability, lethal concentration 50 (LC50). The format is cell-based, human. The protocol:
as §2

Data set [7] has as its system sheep red blood cells. Briefly: Haemolysis assay. Particulars: Ovis aries, Erythrocyte; RBC, 1 h (Table 1); read-out: RBC Hemolysis HD50 (1 h). The format is cell-based. Here is the method:
A haemolysis assay was performed as previously reported. Five millilitres of sheep defibrinated blood (Nippon Bio-Supp. Centre, Tokyo, Japan) was diluted in 45 mL of Dulbecco’s phosphate-buffered saline (DPBS) to obtain a total volume of 50 mL. The cell suspension was centrifuged at 500× g for 5 min, and the supernatant was discarded. This procedure was repeated three times, and DPBS was added to the precipitate, and the red blood cell (RBC) count was adjusted to ~5×10^8 cells/mL. The RBC suspension (500 µL) was placed into a 1.5 mL storage tube, and the reagent was administered and incubated for 30 min on ice. […] The cell suspension was then centrifuged at 500× g for 5 min. The haemoglobin concentration in the supernatant was measured by measuring the UV absorbance at 540 nm.

Data set [8] deals with caspase-3 and caspase-7. Briefly: Caspase 3/7 assay (Caspase-Glo 3/7) in PC-3 cells. The format is cell-based, human. Particulars: for Caspase 3/7 activities in PC-3 cells: 3 or 6 h; for Induction of caspase-3 and caspase-7 activities: PC-3 cells, sub-IC50 concentrations. The protocol: PC-3 cells were seeded (3 × 10^3 cells/well) in a 96-well plate in DMEM containing 10% FBS for 24 h and treated with the test compounds. Caspase-Glo 3/7 assay (Promega) was performed according to the manufacturer’s instructions. Luminescence signals were measured using a Victor2 microplate reader (PerkinElmer).

Here are results for 2 compounds from publication PMC8246325, “Toxicity of Jegosaponins A and B from Styrax japonica Siebold et al. Zuccarini in Prostate Cancer Cells and Zebrafish Embryos Resulting from Increased Membrane Permeability” (International Journal of Molecular Sciences, 2021).

With `C/C=C(\C)C(=O)O[C@H]1[C@H](OC(C)=O)[C@@]2(CO)C(CC1(C)C)C1=CCC3[C@@]4(C)CC[C@H](O[C@@H]5O[C@H](C(=O)O)[C@@H](O[C@@H]6O[C@H](CO)[C@H](O)[C@H](O)[C@H]6O[C@@H]6O[C@@H](C)[C@H](O)[C@@H](O)[C@H]6O)[C@H](O)[C@H]5O[C@@H]5O[C@H](CO)[C@@H](O)[C@H](O)[C@H]5O)C(C)(C)C4CC[C@@]3(C)[C@]1(C)C[C@H]2O` (stereo partly drawn) [Jegosaponin A, jegosaponin A], in data set [1], the LC50 at 120 h worked out at 500 nM and the LC50 at 24 h amounted to 700 nM. In data set [2], the 50% inhibitory concentration (IC50) was 3400 nM and the EC50 was determined as 3400 ± 600 nM. In addition, the “Lethality to zebrafish embryos at high concentration” value in data set [3] (6 μM) is given as “killed all embryos”. In addition, in data set [3], the “DRAQ7 signals in zebrafish (cell membrane permeability)” value is recorded as “apparently increased DRAQ7 signals”. Further, the “Suppression of viability of LNCaP cells” value in data set [4] is “suppress viability”. Further, in data set [4] (listed as jegosaponin A), the “Suppression of viability of LNCaP cells” value is given as “suppressed the viability”. The “Suppression of viability of DU145 cells” value in data set [5] was “suppress viability”. In addition, the “Suppression of viability of DU145 cells” value in data set [5] (listed as jegosaponin A) is “suppressed the viability”. Moreover, in data set [6], the “Suppression of viability of PC-3 cells” value was “suppress viability” and the CC50 worked out at 700 nM. In addition, the EC50 in data set [7] came to 2100 nM. The “Caspase 3/7 activities in PC-3 cells” value in data set [8] (1.5 µM) was “do not affect caspase 3/7 activities”. In data set [8], the “Induction of caspase-3 and caspase-7 activities” value is on record as “no apparent induction of their activities”.
`C/C=C(\C)C(=O)O[C@H]1[C@H](O)[C@@]2(COC(C)=O)C(CC1(C)C)C1=CCC3[C@@]4(C)CC[C@H](O[C@@H]5O[C@H](C(=O)O)[C@@H](O[C@@H]6O[C@H](CO)[C@H](O)[C@H](O)[C@H]6O[C@@H]6O[C@@H](C)[C@H](O)[C@@H](O)[C@H]6O)[C@H](O)[C@H]5O[C@@H]5O[C@H](CO)[C@@H](O)[C@H](O)[C@H]5O)C(C)(C)C4CC[C@@]3(C)[C@]1(C)C[C@H]2O` (stereo partly drawn) [Jegosaponin B, jegosaponin B]: the 50% lethal concentration (LC50) at 120 h in data set [1] worked out at 1300 nM. In data set [1], this compound returned an LC50 at 24 h of 1400 nM. In addition, the IC50 in data set [2] was found to be 6000 nM. Moreover, the EC50 was found to be 6000 ± 1200 nM in data set [2] and 20200 nM in data set [7]. Besides, the “Lethality to zebrafish embryos at high concentration” value in data set [3] (12 μM) is on record as “killed all embryos”. The “DRAQ7 signals in zebrafish (cell membrane permeability)” value in data set [3] is “apparently increased DRAQ7 signals”. Moreover, the “Suppression of viability of LNCaP cells” value in data set [4] (listed as B) is recorded as “suppress viability”; in data set [4] (listed as jegosaponin B), “suppressed the viability”. For the same compound, the “Suppression of viability of DU145 cells” value in data set [5] (listed as B) was “suppress viability”; in data set [5] (listed as jegosaponin B) it was “suppressed the viability”. Also, the “Suppression of viability of PC-3 cells” value in data set [6] is reported as “suppress viability”. In addition, the CC50 in data set [6] stood at 1600 nM. The “Caspase 3/7 activities in PC-3 cells” value in data set [8] (0.5 µM) is listed as “do not affect caspase 3/7 activities”. Further, the “Induction of caspase-3 and caspase-7 activities” value in data set [8] is recorded as “no apparent induction of their activities”.

In general, LC50 refers to the concentration lethal to half of the exposed cells or organisms. Low readings indicate greater toxicity, high ones lower toxicity. The IC50 is the midpoint of a concentration-inhibition curve. Low readings indicate greater potency in that assay, high ones weaker potency in that assay.
